From patent US9783521B2, “PDE10 inhibitors and related compositions and methods” (Omeros Corporation, priority 2008, dated 2017)

Assays:
[1] = molecular target: T1, recombinant human PDE 10A1 (Homo sapiens, UniProt Q9Y233); assay: PDE10 biochemical assay (two-step Thompson and Appleman method or SPA); details: PDE10 inhibition; read-out: IC50
T1 construct: made in house; host or cells: Sf9 insect cells, baculoviral system
Protocol: After the appropriate incubation time, the reaction is terminated by heating. The mixture is then subjected to treatment with snake venom phosphatase. […] IC50 values can be calculated by performing the experiment at several concentrations using standard graphical means. A detailed description of the actual technique used for IC50 assays as set forth in following Examples.
The phosphodiesterase (PDE) assay was performed using recombinant human PDE 1A3, 2A3, 3 catalytic region, 4 catalytic region, 5 catalytic region, 7A, 8A, 9A2, 10A1 and 11A1 enzymes expressed in a baculoviral system using Sf9 cells. PDE activity was measured using a modification of the two-step method of Thompson and Appleman described above which was adapted for 96 well plate format. […] Reactions were initiated with enzyme and incubated with (^3H)-substrate and substance for 20 minutes at 30° C. The reaction was terminated by denaturing the enzyme (heating the reaction to 70° C. for 2 minutes). The reaction was then cooled at 4° C. for 10 minutes before the addition of snake venom (Crotalus atrox, 0.2 mg/ml) for 10 minutes at 30° C., thus allowing non-specific hydrolysis of the tritiated substrate. Separation of the remaining unhydrolysed cyclic nucleotide was achieved by a batch binding of the mixture to activated Dowex (200 μl) anion exchange resin. The anion exchange resin bound the charged nucleotides, leaving only hydrolysed (^3H) substrate in the soluble fraction. The soluble fraction (50 μl) was then added to microscint-20 (200 μl) and counted on a Top Count Plate reader. Radioactivity units were plotted against inhibitor concentration and IC50 values obtained using Graph Pad Prism software.
Alternatively, phosphodiesterase activity was measured by scintillation proximity assay (SPA) with [^3H]-cGMP as substrate. Purified PDE10 was diluted and stored in 25 mM Tris-Cl (pH 8.0)/100 mM NaCl/0.05% Tween 20/50% glycerol/3 mM DTT. Assays contained (final concentrations): 50 mM Tris-Cl (pH 7.5)/8.3 mM MgCl2/1.7 mM EGTA/0.5 mg/ml BSA/5% DMSO and 2 ng PDE10 in a final volume of 0.1 mL. Inhibition was evaluated at 8 concentrations in duplicate. Reactions were initiated by addition of enzyme and were terminated after 20 minutes at 30° C. by the addition of 50 μl of SPA beads containing Zn^++. The mixture was shaken, allowed to settle for 3 hours, and counted in a Wallac plate counter. Results (net cpm) were fitted to a four parameter logistic model using Excel Solver®.

C57BL/6 male mice [2] = assay: PCP-induced hyperactivity (psychostimulant-induced model of psychosis); type: in vivo
Protocol: Psychostimulant-induced hyperactivity is measured by injecting animals with PCP and monitoring the animals' activity levels in the VersaMax chambers (Accuscan Instruments, Columbus, Ohio) measuring 40×40 cm. Locomotor activity is detected by photobeam breaks as the animal crosses each beam. The animal is placed in the center of the field and left undisturbed for a period of time (20 min to 2 hr) to measure its spontaneous activity in a novel environment. Measurements used to assess locomotor activity include: horizontal activity, total distance traveled, vertical activity (rearing events—animal raises up on hindlimbs), rotation, stereotypy, and distance traveled in the center compared to total distance traveled (center: total distance ratio). The NMDA antagonist PCP induces psychosis-like conditions manifested as hyperactivity and increased stereotypic behavior. Known antipsychotics are able to reverse psychostimulant-induced hyperactivity and increased stereotypy.
C57BL/6 male mice were injected with either compound (10 mg/kg) or vehicle via i.p. Ten minutes later, the mice were injected with PCP (5 mg/kg) via i.p. The mice were placed in the activity chambers 10 minutes after PCP injection and their locomotor activities were monitored by infrared beam breaks for 20 min.
(§1) C57BL/6 male mice were administered either compound or vehicle via oral gavage. Fifteen minutes later, the mice were injected with PCP (5 mg/kg) via the i.p. route. The mice were placed in activity chambers 10 minutes after PCP injection, and their locomotor activity in the horizontal dimension was monitored by infrared beam breaks for 20 min (5 consecutive 4-minute intervals (INT) as indicated).
as §1, with “Twenty-five” for “Fifteen”, “injection” for “injection,”
C57BL/6 male mice were given either compound or vehicle by oral gavage. Twenty-five minutes later they were injected with PCP (5 mg/kg, i.p.). Ten minutes later, the mice were placed in activity chambers, and their locomotor activity in the horizontal dimension was monitored by infrared beam breaks for 20 min (5 consecutive 4-minute intervals (INT) as indicated).
C57BL/6 male mice were co-injected with PCP (5 mg/kg) and either compound or vehicle via the i.p. route. Ten minutes later, the mice were placed in activity chambers and their locomotor activity in the horizontal dimension was monitored by infrared beam breaks for 20 min (5 consecutive 4-minute intervals (INT) as indicated).
as §1, with “oral gavage. Twenty-five minutes later,” for “oral gavage. Fifteen minutes later,”, “placed in the activity chambers” for “placed in activity chambers”, “after PCP injection and their” for “after PCP injection, and their”
C57BL/6 male mice were administered either compound or vehicle via oral gavage. Twenty-five minutes later, the mice were injected with PCP (5 mg/kg) via the i.p. route. The mice were placed in the activity chambers 10 minutes after injection and their locomotor activity in the horizontal dimension was monitored by infrared beam breaks for 20 min (5 consecutive 4-minute intervals as indicated).

C57BL/6 male mice [3] = assay: Conditioned avoidance response (CAR) model of psychosis; type: in vivo; details: for number of avoidance responses (CAR) vs vehicle: 30 trials; for conditioned avoidance response (CAR) in trained mice as compared to vehicle control: mouse, in vivo
From the text: Conditioned avoidance response (CAR) is a behavioral test to evaluate antipsychotic effect of a test compound. […] Each chamber is fitted with metal grid floor that is capable of delivering electric shocks independently. A computer program is used to implement the testing paradigm as well as record the animal's movement between the two chambers through infrared beam sensors. The testing paradigm is as the follows. A mouse is placed into one chamber. A light (conditioned stimulus, CS) comes on. Five seconds later, mild electric shocks (0.4 mA) (unconditioned stimulus, US) are delivered to the chamber where the mouse is located (as detected by infrared beams) until the mouse escapes to the adjacent chamber or until 10 sec has elapsed. The US and CS always co-terminate. With randomized inter-trial intervals averaging 15 sec, 30 such CS-US pairing trials are given to each mouse each day. For each trial, an escape response is registered if the mouse crosses to the other chamber after being shocked (i.e., during the 10-sec US period), and an avoidance response is registered if the mouse crosses to the other chamber during the first 5-sec CS only period. The animals are trained in such paradigm for 15-20 days, during which the average percentage of avoidance responses will improve to 60-80%. […] These trained animals are then used for compound testing using the same paradigm.
The mice were then injected with either compound or vehicle via i.p., and 20 minutes later they were tested for 30 trials in the CAR paradigm. Vehicle treatment and compound treatment were given to the same animals on alternating days, and the effect of compound in reducing avoidance response was analyzed through within-subject comparison (paired t-test). […] The mice were then given either vehicle (15 minutes prior to testing) or compound (25 minutes prior to testing) via oral gavage, and were tested for 30 trials in the CAR paradigm. Vehicle treatment and compound treatment were given to the same animals on alternating days, and the effect of compound in reducing avoidance response was analyzed through within-subject comparison (paired t-test).
The mice were then given either vehicle (15 minutes prior to testing) or compound (25 minutes prior to testing) via oral gavage, and then were tested for 30 trials in the CAR paradigm. Vehicle treatment and compound treatment were given to the same animals on alternating days, and the effect of compound in reducing avoidance response was analyzed through within-subject comparison (paired t-test).
The mice were then given either vehicle (15 minutes prior to testing) or compound (25 minutes prior to testing) via oral gavage, and were then tested for 30 trials in the CAR paradigm. Vehicle treatment and compound treatment were given to the same animals on alternating days, and the effect of compound in reducing avoidance response was analyzed through within-subject comparison (paired t-test).
The mice were then given either vehicle (15 minutes prior to testing) or compound (25 minutes prior to testing) via oral gavage, and were tested for 30 trials in the CAR paradigm.

PDE10 [4] = details: cited from earlier work
PDE10 [5] = details: cGMP binding to PDE10; read-out: dissociation constant (Kd); cited from earlier work

T1 sequence (Q9Y233 1-779 isoform Q9Y233-1): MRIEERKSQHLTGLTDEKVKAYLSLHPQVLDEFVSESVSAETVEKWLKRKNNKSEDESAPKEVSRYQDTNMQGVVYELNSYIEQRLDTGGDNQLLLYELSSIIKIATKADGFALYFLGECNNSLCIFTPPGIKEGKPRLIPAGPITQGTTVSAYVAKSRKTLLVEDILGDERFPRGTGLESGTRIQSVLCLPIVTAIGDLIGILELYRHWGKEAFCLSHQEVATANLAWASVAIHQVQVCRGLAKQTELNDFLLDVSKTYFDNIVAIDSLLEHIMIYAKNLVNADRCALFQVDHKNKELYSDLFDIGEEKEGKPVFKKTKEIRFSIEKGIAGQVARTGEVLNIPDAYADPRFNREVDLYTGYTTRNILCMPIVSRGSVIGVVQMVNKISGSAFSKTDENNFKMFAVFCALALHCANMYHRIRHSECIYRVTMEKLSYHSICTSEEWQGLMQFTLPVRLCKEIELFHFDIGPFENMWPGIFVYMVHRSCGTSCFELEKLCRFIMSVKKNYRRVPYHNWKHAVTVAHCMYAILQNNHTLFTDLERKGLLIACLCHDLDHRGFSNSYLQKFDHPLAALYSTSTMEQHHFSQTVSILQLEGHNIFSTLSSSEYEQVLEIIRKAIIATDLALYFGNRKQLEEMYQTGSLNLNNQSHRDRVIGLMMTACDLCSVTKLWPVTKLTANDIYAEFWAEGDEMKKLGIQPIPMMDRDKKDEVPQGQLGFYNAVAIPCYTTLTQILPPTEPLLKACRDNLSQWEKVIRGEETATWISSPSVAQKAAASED

With `CCOC(C(=O)N/N=C/c1cc(OC)c(Br)c(OC)c1)c1cccc2ncccc12` (stereo not shown) [Compound 12-60] the IC50 [1] was no more than 1000 nM, the “PCP-induced hyperactivity compared to vehicle” value (C57BL/6 male mice [2]; 10 mg/kg i.p., ten minutes before PCP 5 mg/kg i.p.) was “a similar result” and the “hyperactivity of mice in PCP-induced model of psychosis as compared to vehicle control” value (“hyperactivity … compared to vehicle control” below) (C57BL/6 male mice [2]; dose not stated) was “significantly reduces hyperactivity”.
With `COc1cc(/C=N/NC(=O)C(OC)c2ccc(-n3cccn3)cc2)cc(OC)c1Br` (stereo not shown) [Compound 12-104] the “PCP-induced hyperactivity compared to vehicle+PCP control” value (C57BL/6 male mice [2]; mouse, in vivo) was “reduces or abolishes the hyperactivity”, the “hyperactivity … compared to vehicle control” value (C57BL/6 male mice [2]; mouse, in vivo) was “significantly reduces hyperactivity” and the “number of avoidance responses (CAR) vs vehicle” value (“number … vs vehicle” for short) (C57BL/6 male mice [3]; 10 mg/kg oral) was “significantly reduces the number of avoidance response”. For the same compound, the “number … vs vehicle” value (C57BL/6 male mice [3]; 30 mg/kg oral) was “significantly reduces the number of avoidance response” and the “conditioned avoidance response (CAR) in trained mice as compared to vehicle control” value (C57BL/6 male mice [3]) was “significantly reduces a conditioned avoidance response”.
For `CC(C)Cn1c(=O)n(C)c(=O)c2[nH]cnc21` [IBMX, reference compound], the IC50 (PDE10 [4]; read-out: IC50 (50% inhibitory concentration), inhibition of PDE10) is listed as 2600 nM.
With `COc1cc(/C=N/NC(=O)C(OC)c2ccc(N3CCOCC3)cc2)cc(OC)c1Br` (stereo not shown) [Compound 12-114] the “PCP-induced hyperactivity compared to vehicle+PCP control” value (C57BL/6 male mice [2]; mouse, in vivo) was “completely abolishes the hyperactivity”, the “hyperactivity … compared to vehicle control” value (C57BL/6 male mice [2]; mouse, in vivo) was “significantly reduces hyperactivity” and the “number … vs vehicle” value (C57BL/6 male mice [3]; 10 mg/kg oral) was “significantly reduces the number of avoidance response”. The “conditioned avoidance response (CAR) in trained mice as compared to vehicle control” value (C57BL/6 male mice [3]) was “significantly reduces a conditioned avoidance response”.
`COc1ccc(/C=N/NC(=O)C(OC)c2ccc3ccccc3c2)cc1OC1CCCC1` (stereo not shown) [Compound 12-18] gave an IC50 [1] of no more than 1000 nM.
For `Nc1nc2c(ncn2[C@@H]2O[C@@H]3COP(=O)(O)O[C@H]3[C@H]2O)c(=O)[nH]1` [cGMP], the Km (PDE10 [4]; substrate hydrolysis by PDE10) is listed as 3 µM and the Kd (PDE10 [5]) is listed as greater than 9000 nM.
`COc1cc(/C=N/NC(=O)C(OC)c2ccc(Cl)cc2)ccc1C` (stereo not shown) [Compound 12-8] showed an IC50 [1] of no more than 1000 nM.
For `CCOC(C(=O)N/N=C/c1cc(Cl)c(OC)c(OC)c1)c1ccc2c(c1)OCCN2C` (stereo not shown) [Compound 12-85], the IC50 [1] was no more than 1000 nM.
`COc1cc(/C=N/NC(=O)C(OC)c2cc3ccccc3s2)cc(OC)c1OC` (stereo not shown) [Compound 8-1, (E)-2-(Benzo[b]thiophen-2-yl)-2-methoxy-N′-(3,4,5-trimethoxybenzylidene)acetohydrazide] showed an IC50 [1] of no more than 1000 nM.
In the case of `COc1cc(/C=N/NC(=O)C(OC)c2cc3ccccc3s2)cc(Cl)c1OC` (stereo not shown) [Compound 12-42], the IC50 [1] is reported as no more than 1000 nM.
For `COc1cc(/C=N/NC(=O)C(OC)c2ccc(Cl)cc2)cc(OC)c1OC` (stereo not shown) [Compound 12-15], the IC50 [1] was no more than 1000 nM.
`CCOC(C(=O)N/N=C/c1cc(OC)c(OC)c(OC)c1)c1cccc2ncccc12` (stereo not shown) [Compound 12-59] gave an IC50 [1] of no more than 1000 nM.
